Measurements reported in US20120045764A1, “METHOD OF EXPANDING HUMAN HEPATOCYTES IN VIVO” (priority 2009, published 2012).
Values joined by “and” are separate entries in the source; they are usually repeats but may differ in a detail not shown here. Identical values can stand only once. “Also recorded” adds a separate entry of the source.

What was measured:
[1] = test system: CYP1A1 and 1A2; test: Ethoxyresorufin-O-deethylase (EROD) activity in cultured hepatocytes from humanized mice; type: cell-based, human; settings: humanized mouse liver cells in culture
Experimental: (§1) Cultures of isolated hepatocytes were established and exposed to prototypical inducers of the cytochrome P450 genes. […]. In addition to the mRNA expression levels of human drug metabolism genes, the enzymatic activity of the human CYP1A and 3A family members were measured. Ethoxyresorufin-O-deethylase activity (EROD) is known to be mediated by CYP1A1 and 1A2 in human liver. […] Thus, hepatocytes from repopulated FRG livers were indistinguishable from normal human adult hepatocytes in these standard drug metabolism assays.

[2] = test system: human drug metabolism genes; test: Induction of mRNAs of drug metabolism genes in cultured hepatocytes from humanized mice (real-time PCR); type: cell-based; settings: cultured hepatocytes from chimeric mice, mRNA
Experimental: as §1

[3] = test system: FRG mice; test: Maintenance of FRG mice on NTBC in drinking water and NTBC withdrawal; type: in vivo, mouse
Experimental: To generate an immunodeficient Fah^−/− mouse strain completely lacking T cells, B cells and NK cells, but without a DNA repair defect, Fah^−/−/Rag2^−/−/Il2rg^−/− (FRG) mice were generated. Male Fah^−/−129S4 mice (Grompe et al. Genes Dev. 7:2298-2307, 1993) were crossed with female Rag2^−/−/Il2rg^−/− mice (Taconic). All animals were maintained with drinking water containing 2-(2-nitro-4-trifluoro-methyl-benzoyl)-1,3 cyclohexanedione (NTBC) at a concentration of 1.6 mg/L (Grompe et al. Nat. Genet. 10:453-460, 1995). To confirm the genotypes of each animal, PCR-based genotyping was carried out on 200 ng genomic DNA isolated from toe tissue (Grompe et al. Genes Dev. 7:2298-2307, 1993; Traggiai et al. Science 304:104-107, 2004).

[4] = test system: CYP3A4; test: Conversion of testosterone to 6-beta-hydroxyltestosterone in cultured hepatocytes from humanized mice; settings: cultured hepatocytes from repopulated FRG livers
Excerpt: (§2) The basal expression and induction of human liver specific genes in chimeric mice was examined. […] Primers, obtained from Applied Biosystems, were specific for human CYP1A1 (Hs00153120_m1), CYP1A2 (Hs00167927_m1), CYP3A4 (Hs00430021_m1), CYP3A7 (Hs00426361_a1), CYP2B6 (Hs00167937_g1), CYP2D6 (Hs00164385_a1), Multidrug resistance associated protein MRP2 (Hs00166123_m1), Bile Salt export Pump BSEP, (Hs00184829_m1), CAR (Hs00231959_m1) Albumin (Hs00609411_m1), HNF4α (Hs00230853_m1), Cyclophillin (Hs99999904_m1) and mouse actin (Ma00607939_s1).
Cultures of isolated hepatocytes were established and exposed to prototypical inducers of the cytochrome P450 genes. […] In addition to the mRNA expression levels of human drug metabolism genes, the enzymatic activity of the human CYP1A and 3A family members were measured. Ethoxyresorufin-O-deethylase activity (EROD) is known to be mediated by CYP1A1 and 1A2 in human liver.

[5] = test system: CYP3A4; test: Induction of CYP3A4 mRNA in hepatocytes from humanized mice (real-time PCR); settings: relative to non-induced cultures; FIG. 7B
Excerpt: as §2

[6] = test system: FRG mice; test: Liver repopulation of FRG mice treated with anakinra (blood human albumin by ELISA); type: in vivo, mouse; settings: for blood level of human albumin, Elisa #1: Experiment #3, serial transplantation
Experimental: Small amounts of blood were collected once a week from the left saphenous vein with a heparinized blood capillary. After 1,000 or 10,000× dilution with Tris-buffered saline, human albumin concentration was measured with the Human Albumin ELISA Quantitation Kit (Bethyl) according to the manufacturer's protocol.
One million human hepatocytes from the same batch were injected intrasplenically into six FRG mice. In three mice, anakinra (2 mg) was administered intraperitoneally during surgery and then once daily for six additional doses (total dose=14 mg over 7 days). One month after transplantation, blood human albumin was measured by ELISA. […] All three anakinra-treated mice had much higher albumin levels (130, 165 and 200 μg/ml).
Additional experiments validated these initial observations. […] Cohorts of genetically identical mice were injected with the same batch of human cells and were either untreated (Con) or treated with anakinra (Ana). Different dosing regimens of anakinra were used and different lengths of administration were tested. High dose anakinra (Hi) was 2 mg/mouse/day and low dose (lo) was 0.4 mg/mouse/day. The drug was injected daily for either 3 days (×3) or 7 days (×7). Blood levels of human albumin were measured by ELISA to ascertain the degree of human repopulation.

Compound: O=c1cc(-c2ccccc2)oc2ccc3ccccc3c12 [BNF, beta-naphthoflavone]
- EROD activity after prior exposure to inducer [1]: specifically and robustly induced
- pattern of genes induced [2]: as expected from normal human cells

Compound: O=C1CCCC(=O)C1C(=O)c1ccc(C(F)(F)F)cc1[N+](=O)[O-] [NTBC, 2-(2-nitro-4-trifluoro-methyl-benzoyl)-1,3 cyclohexanedione]
- death after NTBC withdrawal ([3]; FRG mice, gradual hepatocellular injury after withdrawal): 4-8 weeks
- growth and fertility of FRG mice ([3]; NTBC continuously in drinking water, 1.6 mg/L): grew well and were fully fertile

Compound: CCC1(c2ccccc2)C(=O)NC(=O)NC1=O [PB, phenobarbital]
- conversion of testosterone to 6-beta-hydroxyltestosterone after prior exposure to inducer [4]: specifically induced
- induction of CYP3A4 mRNA [5]: even more striking than at the enzyme level

Compound: anakinra: recombinant, non-glycosylated version of human IL-1RA (IL-1 receptor antagonist), 153 amino acids, SEQ ID NO: 21
- blood level of human albumin, Elisa #2 ([6]; Experiment #1, primary transplantation, high dose (2 mg/mouse/day) x7): 5.6 mg and 4.8 mg
- blood level of human albumin, Elisa #1 ([6]; Hi (2 mg/mouse/day) x3): 52 μg-Hi x3 and 60 μg-Hi x3
- blood level of human albumin, Elisa #1 ([6]; Hi (2 mg/mouse/day) x7): 38 μg-Hi x7 and 56 μg-Hi x7
- blood human albumin ([6]; FRG mice, one million human hepatocytes intrasplenically, anakinra 2 mg i.p. during surgery then once daily for six doses (total 14 mg over 7 days), one month after transplantation): 130 µg/mL and 165 µg/mL and 200 µg/mL
- hepatocyte repopulation (in words) ([6]; anakinra-treated versus untreated FRG mice): remarkably enhanced; also recorded: consistently had much higher levels of repopulation
- enhanced repopulation versus untreated mice ([6]; on average, three independent tests of Table 6): approximately 100 fold
- percentage of highly humanized FRG mice after transplantation of human hepatocytes ([6]; with anakinra treatment versus without): significantly higher
